This passage reports IC50 results from patent US20230312587A1, “PTERIDINONE COMPOUNDS AND USES THEREOF” (Vertex Pharmaceutical Incorporated, priority 2018, published 2023).

pIC50: −log10 of the molar value. Read-outs that look alike come from different tables or passages of the source. Where only a bound is given, the exact number is not on record here.

This test deals with β-catenin-TCF-mediated reporter transcription activity in Colo 205 cells. Put plainly: Colo 205 reporter assay (TCF/LEF luciferase). Type of test: cell-based. Conditions: Homo sapiens, COLO 205, 5 h, Colo 205 TCF/LEF luciferase reporter, read-out: TCF reporter Colo205 IC50. Summed up:
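Luciferase signal from a TCF/LEF-driven reporter, stably integrated in Colo 205 colon cancer cells, was measured 5 h after compound addition.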
On the technique in general: In a reporter assay the amount or activity of a reporter protein is the signal.

Where [1] appears, read: five hours after addition of compound.
Where [2] appears, read: R-isomer at C2 (corresponding to C2 S-isomer), 5 h.

For the compound `COc1ncc(Cn2cc(CNc3nc(C)c4c(n3)N(C)[C@@H](C)C(=O)N4)cn2)cc1C(F)(F)F` [Compound 215, (7S)-2-(((1-((6-methoxy-5-(trifluoromethyl)pyridin-3-yl)methyl)-1H-pyrazol-4-yl)methyl)amino)-4,7,8-trimethyl-7,8-dihydropteridin-6(5H)-one], the pIC50 (as a rule, the negative decadic logarithm of the IC50, by convention in mol/L) under setting [1] was greater than 6.52. Still for that read-out and setting: the value for `COc1cc(C(F)(F)F)ncc1Cn1cc(CNc2nc(C)c3c(n2)N(C)[C@@H](C)C(=O)N3)cn1` [Compound 210, (7S)-2-(((1-((4-methoxy-6-(trifluoromethyl)pyridin-3-yl)methyl)-1H-pyrazol-4-yl)methyl)amino)-4,7,8-trimethyl-7,8-dihydropteridin-6(5H)-one] was greater than 6.52; that for `Cc1nc(N[C@@H]2CCc3c2cnn3Cc2ccc(C(F)(F)F)nc2)nc2c1NC(=O)[C@H](C)N2C` [Compound 625, (7S)-4,7,8-trimethyl-2-(((R)-1-((6-(trifluoromethyl)pyridin-3-yl)methyl)-1,4,5,6-tetrahydrocyclopenta[c]pyrazol-4-yl)amino)-7,8-dihydropteridin-6(5H)-one] was no more than 5.30. Consider `Cc1nc(NCc2cnn(Cc3ccnc(C#N)c3)c2)nc2c1NC(=O)[C@@H](C)N2C` [Compound I-1649], for which, under setting [2], the pIC50 is no more than 5.30. For the compound `Cc1nc(NCc2cnn(CCc3cc(F)c(F)c(F)c3)c2)nc2c1NC(=O)[C@H](C)N2C` [Compound 123, (7S)-4,7,8-trimethyl-2-(((1-(3,4,5-trifluorophenethyl)-1H-pyrazol-4-yl)methyl)amino)-7,8-dihydropteridin-6(5H)-one], the pIC50 under setting [1] is greater than 6.52. Still for that read-out and setting: with `Cc1nc(N[C@H]2C[C@@H](COc3ccc(C#N)nc3)C2)nc2c1NC(=O)[C@H](C(C)C)N2C` [Compound 572, 5-((cis-3-(((S)-7-isopropyl-4,8-dimethyl-6-oxo-5,6,7,8-tetrahydropteridin-2-yl)amino)cyclobutyl)methoxy)picolinonitrile] the figure was greater than 6.52; with `C[C@H]1C(=O)Nc2cnc(NCc3cnn(Cc4cccc(C(F)(F)F)c4)c3)nc2N1C` [Compound 45, (7S)-7,8-dimethyl-2-(((1-(3-(trifluoromethyl)benzyl)-1H-pyrazol-4-yl)methyl)amino)-7,8-dihydropteridin-6(5H)-one], greater than 6.52; with `Cc1nc(N[C@H]2CO[C@@H](COc3cc(F)c(F)c(F)c3)C2)nc2c1NC(=O)[C@H](C)N2C` [Compound 309, (7S)-4,7,8-trimethyl-2-(((3R,5R)-5-((3,4,5-trifluorophenoxy)methyl)-tetrahydrofuran-3-yl)amino)-7,8-dihydropteridin-6(5H)-one], 6.00 to 6.52. Still for that read-out and setting: the value for `Cc1nc(NCc2cnn(Cc3cc(C(F)(F)F)n(C)n3)c2)nc2c1NC(=O)[C@H](C)N2C` [Compound 190, (7S)-4,7,8-trimethyl-2-(((1-((1-methyl-5-(trifluoromethyl)-1H-pyrazol-3-yl)methyl)-1H-pyrazol-4-yl)methyl)amino)-7,8-dihydropteridin-6(5H)-one] was 6.00 to 6.52; that for `Cc1nc(NCc2ccc(OCc3ccc(F)cc3)cn2)nc2c1NC(=O)[C@H](C)N2C` [Compound 70, (S)-2-(((5-((4-fluorobenzyl)oxy)pyridin-2-yl)methyl)amino)-4,7,8-trimethyl-7,8-dihydropteridin-6(5H)-one] was 6.00 to 6.52. `CCC[C@@H]1C(=O)Nc2c(C)nc(NCc3cnn(Cc4ccc(C(F)(F)F)nc4)c3)nc2N1C` [Compound I-1638]: the pIC50 under setting [2] was 5.30 to 6.00. As to `Cc1nc(N[C@H]2C[C@@H](Sc3ccc(F)cc3)C2)nc2c1NC(=O)[C@H](C)N2C` [Compound 304, (7S)-2-((cis-3-((4-fluorophenyl)thio)cyclobutyl)amino)-4,7,8-trimethyl-7,8-dihydropteridin-6(5H)-one], the pIC50 under setting [1] is 6.00 to 6.52.

For the compound `COC1(C2C(=O)Nc3c(C)nc(N[C@H]4C[C@H](Oc5ccc(C(F)(F)F)nc5)C4)nc3N2C)CCC1` (relative stereo) [Compound 671, 7-(1-methoxycyclobutyl)-4,8-dimethyl-2-((trans-3-((6-(trifluoromethyl)pyridin-3-yl)oxy)cyclobutyl)amino)-7,8-dihydropteridin-6(5H)-one], the negative logarithm of the IC50 (pIC50) under setting [1] was greater than 6.52. The same measure, in the same setting: the value for `Cc1nc(N[C@H]2C[C@H](Oc3ccc(OC(F)(F)F)c(F)c3)C2)nc2c1NC(=O)[C@H](C)N2C` [Compound 359, (7S)-2-((trans-3-(3-fluoro-4-(trifluoromethoxy)phenoxy)cyclobutyl)amino)-4,7,8-trimethyl-7,8-dihydropteridin-6(5H)-one] was greater than 6.52. Still for that read-out and setting: with `Cc1nc(NCc2cnn([C@H](C)Cc3ccccc3)c2)nc2c1NC(=O)[C@H](C)N2C` [Compound 101, (7S)-4,7,8-trimethyl-2-(((1-((R)—1-phenylpropan-2-yl)-1H-pyrazol-4-yl)methyl)amino)-7,8-dihydropteridin-6(5H)-one] the figure was greater than 6.52. On the same count and under the same terms, with `CC(=O)c1nc(C(F)(F)F)ccc1Cn1cc(CNc2nc(C)c3c(n2)N(C)[C@@H](C)C(=O)N3)cn1` [Compound 413, (7S)-2-(((1-((2-acetyl-6-(trifluoromethyl)pyridin-3-yl)methyl)-1H-pyrazol-4-yl)methyl)amino)-4,7,8-trimethyl-7,8-dihydropteridin-6(5H)-one] the figure was greater than 6.52. As to `Cc1cc(C(F)(F)F)cc(OC[C@H]2C[C@@H](Nc3nc(C)c4c(n3)N(C)[C@@H](C)C(=O)N4)C2)n1` [Compound 365, (7S)-4,7,8-trimethyl-2-((cis-3-(((6-methyl-4-(trifluoromethyl)pyridin-2-yl)oxy)methyl)cyclobutyl)amino)-7,8-dihydropteridin-6(5H)-one], the pIC50 under setting [1] was greater than 6.52. Still for that read-out and setting: with `CC[C@H]1C(=O)Nc2c(C)nc(NCc3cnn(Cc4ccc(C(F)(F)F)o4)c3)nc2N1C` [Compound 516, (S)-7-ethyl-4,8-dimethyl-2-(((1-((5-(trifluoromethyl)furan-2-yl)methyl)-1H-pyrazol-4-yl)methyl)amino)-7,8-dihydropteridin-6(5H)-one] the figure was greater than 6.52; with `COc1ccc(O[C@H]2C[C@H](Nc3nc(C)c4c(n3)N(C)[C@@H](C)C(=O)N4C)C2)cc1` [Compound 343, (7S)-2-((trans-3-(4-methoxyphenoxy)cyclobutyl)amino)-4,5,7,8-tetramethyl-7,8-dihydropteridin-6(5H)-one], no more than 5.30; with `[2H]C([2H])(O)c1nc(NCc2cnn(Cc3ccc(C(F)(F)F)nc3)c2)nc2c1NC(=O)[C@H](C)N2C` [Compound 493, (7S)-4-(hydroxymethyl-d2)-7,8-dimethyl-2-(((1-((6-(trifluoromethyl)pyridin-3-yl)methyl)-1H-pyrazol-4-yl)methyl)amino)-7,8-dihydropteridin-6(5H)-one], 5.30 to 6.00. The same measure, in the same setting: the value for `Cc1nc(NC2CN(C(=O)COc3ccccc3C(F)(F)F)C2)nc2c1NC(=O)[C@H](C(C)C)N2C` [Compound 612, (S)-7-isopropyl-4,8-dimethyl-2-((1-(2-(2-(trifluoromethyl)phenoxy)acetyl)azetidin-3-yl)amino)-7,8-dihydropteridin-6(5H)-one] was greater than 6.52; that for `Cc1nc(N[C@@H]2CC[C@H](NC(=O)c3cc(F)c(F)c(F)c3)C2)nc2c1NC(=O)[C@H](C)N2C` (mixture of isomers) [Compound 298, 3,4,5-trifluoro-N-(cis-3-(((S)-4,7,8-trimethyl-6-oxo-5,6,7,8-tetrahydropteridin-2-yl)amino)cyclopentyl)benzamide] was 5.30 to 6.00; that for `Cc1cc(OC(C)C)ncc1Cn1cc(CNc2nc(C)c3c(n2)N(C)[C@@H](C)C(=O)N3)cn1` [Compound 168, (7S)-2-(((1-((6-isopropoxy-4-methylpyridin-3-yl)methyl)-1H-pyrazol-4-yl)methyl)amino)-4,7,8-trimethyl-7,8-dihydropteridin-6(5H)-one] was greater than 6.52. Still for that read-out and setting: with `[2H]C([2H])([2H])c1nc(NCc2cnn(Cc3ccc(C(F)(F)F)nc3)c2)nc2c1NC(=O)[C@H](C)N2C` [Compound 494, (7S)-7,8-dimethyl-4-(methyl-d3)-2-(((1-((6-(trifluoromethyl)pyridin-3-yl)methyl)-1H-pyrazol-4-yl)methyl)amino)-7,8-dihydropteridin-6(5H)-one] the figure was greater than 6.52.

For `Cc1nc(N[C@H]2C[C@@H](Nc3ccc(C(F)(F)F)cn3)C2)nc2c1NC(=O)[C@H](C(C)C)N2C` [Compound 534, (S)-7-isopropyl-4,8-dimethyl-2-((cis-3-((5-(trifluoromethyl)pyridin-2-yl)amino)cyclobutyl)amino)-7,8-dihydropteridin-6(5H)-one], under setting [1], the pIC50 was greater than 6.52.

For the compound `Cc1nc(N[C@H]2C[C@@H](COc3cncc(F)c3)C2)nc2c1NC(=O)[C@H](C)N2C` [Compound 263, (7S)-2-((cis-3-(((5-fluoropyridin-3-yl)oxy)methyl)cyclobutyl)amino)-4,7,8-trimethyl-7,8-dihydropteridin-6(5H)-one], the pIC50 under setting [1] is 6.00 to 6.52. Consider `Cc1nc(NCc2cnn(Cc3ccc(C4CC4)nc3)c2)nc2c1NC(=O)[C@H](C1CC1)N2C` [Compound 441, (7S)-7-cyclopropyl-2-(((1-((6-cyclopropylpyridin-3-yl)methyl)-1H-pyrazol-4-yl)methyl)amino)-4,8-dimethyl-7,8-dihydropteridin-6(5H)-one], for which, under setting [1], the pIC50 is greater than 6.52. On to `Cc1nc(Cn2cc(CNc3nc(C)c4c(n3)N(C)[C@@H](C)C(=O)N4)cn2)c(C)o1` [Compound 193, (7S)-2-(((1-((2,5-dimethyloxazol-4-yl)methyl)-1H-pyrazol-4-yl)methyl)amino)-4,7,8-trimethyl-7,8-dihydropteridin-6(5H)-one], for which, under setting [1], the pIC50 was 6.00 to 6.52. Same read-out and setting: the value for `COCC1(C)C(=O)Nc2c(C)nc(NCc3cnn(Cc4ccc(C(F)(F)F)nc4)c3)nc2N1C` (centres unmarked) [Compound 703, 7-(methoxymethyl)-4,7,8-trimethyl-2-(((1-((6-(trifluoromethyl)pyridin-3-yl)methyl)-1H-pyrazol-4-yl)methyl)amino)-7,8-dihydropteridin-6(5H)-one] was 6.00 to 6.52.
